Source: patent publication US8802597B2, “Herbicidal pyrimidines” (E I du Pont de Nemours and Company, priority 2003, dated 2014)
Like-named read-outs stand apart in the source and are kept apart here.

Tests used:
Experiment in all cases: Test C pre/postemergence
Type in all cases: in vivo
[1] = test system: yellow nutsedge (Cyperus esculentus); conditions: Cyperus; for pest or weed control at 62 g/ha: 62 g ai/ha; for pest or weed control at 125 g/ha: 125 g ai/ha; for pest or weed control at 250 g/ha: 250 g ai/ha; for pest or weed control at 500 g/ha: 500 g ai/ha
How it was run: (§1)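 Visual injury ratings, 0 (no effect) to 100 (complete control), made 12 to 14 days after treatment by comparison with untreated controls. Greenhouse plants received test chemical in a surfactant-containing non-phytotoxic solvent, either preemergence on planted seeds or postemergence at the 1- to 4-leaf stage.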

[2] = test system: eastern black nightshade (Solanum ptycanthum); conditions: Solanum, pre-emergence, Preemergence, read-out: Plant response rating, Nightshade
How it was run: as §1

[3] = test system: crabgrass (Digitaria sanguinalis); conditions: Digitaria sanguinalis; for pest or weed control at 62 g/ha: 62 g ai/ha; for pest or weed control at 125 g/ha: 125 g ai/ha; for pest or weed control at 250 g/ha: 250 g ai/ha; for pest or weed control at 500 g/ha: 500 g ai/ha
How it was run: as §1

[4] = test system: kochia (Kochia scoparia); conditions: Bassia scoparia; for pest or weed control at 62 g/ha: 62 g ai/ha; for pest or weed control at 125 g/ha: 125 g ai/ha; for pest or weed control at 250 g/ha: 250 g ai/ha; for pest or weed control at 500 g/ha: 500 g ai/ha
How it was run: as §1

[5] = test system: pigweed (Amaranthus retroflexus); conditions: Amaranthus retroflexus; for pest or weed control at 62 g/ha: 62 g ai/ha; for pest or weed control at 125 g/ha: 125 g ai/ha; for pest or weed control at 250 g/ha: 250 g ai/ha; for pest or weed control at 500 g/ha: 500 g ai/ha
How it was run: as §1

[6] = test system: woolly cupgrass (Eriochloa villosa); conditions: Eriochloa villosa; for pest or weed control at 62 g/ha: 62 g ai/ha; for pest or weed control at 125 g/ha: 125 g ai/ha; for pest or weed control at 250 g/ha: 250 g ai/ha; for pest or weed control at 500 g/ha: 500 g ai/ha
How it was run: as §1

[7] = post-emergence, Postemergence, scale 0 to 100 (0 no effect, 100 complete control), read-out: Nutsedge, Yellow plant response rating
[8] = post-emergence, Postemergence, scale 0 to 100, read-out: Plant response rating, Nutsedge, Yellow
[9] = pre-emergence, Preemergence, scale 0 to 100, read-out: Plant response rating, Nutsedge, Yellow
[10] = post-emergence, Postemergence, scale 0 to 100 (0 no effect, 100 complete control), read-out: Crabgrass plant response rating
[11] = post-emergence, Postemergence, scale 0 to 100, read-out: Plant response rating, Crabgrass
[12] = pre-emergence, Preemergence, scale 0 to 100, read-out: Plant response rating, Crabgrass
[13] = post-emergence, Postemergence, scale 0 to 100 (0 no effect, 100 complete control), read-out: Kochia plant response rating
[14] = post-emergence, Postemergence, scale 0 to 100, read-out: Plant response rating, Kochia
[15] = pre-emergence, Preemergence, scale 0 to 100, read-out: Plant response rating, Kochia
[16] = post-emergence, Postemergence, scale 0 to 100 (0 no effect, 100 complete control), read-out: Pigweed plant response rating
[17] = post-emergence, Postemergence, scale 0 to 100, read-out: Plant response rating, Pigweed
[18] = pre-emergence, Preemergence, scale 0 to 100, read-out: Plant response rating, Pigweed
[19] = post-emergence, Postemergence, scale 0 to 100 (0 no effect, 100 complete control), read-out: Cupgrass, Woolly plant response rating
[20] = post-emergence, Postemergence, scale 0 to 100, read-out: Plant response rating, Cupgrass, Woolly
[21] = pre-emergence, Preemergence, scale 0 to 100, read-out: Plant response rating, Cupgrass, Woolly

SMILES: CCOC(=O)c1nc(C2CC2)nc(N)c1Br [Compound 1, ethyl 6-amino-5-bromo-2-cyclopropyl-4-pyrimidinecarboxylate]
- pest or weed control at 62 g/ha [1, 7]: 0%
- pest or weed control at 125 g/ha [1, 7]: 0%
- pest or weed control at 250 g/ha [1, 8]: 5%
- pest or weed control at 500 g/ha [1, 8]: 5%
- pest or weed control at 62 g/ha ([1]; pre-emergence, Preemergence, scale 0 to 100, 0 no effect, 100 complete control, read-out: Plant response rating, Nutsedge, Yellow): 0%
- pest or weed control at 125 g/ha [1, 9]: 0%
- pest or weed control at 250 g/ha [1, 9]: 50%
- pest or weed control at 500 g/ha [1, 9]: 50%
- pest or weed control at 62 g/ha ([2]; 62 g ai/ha, scale 0 to 100, 0 no effect, 100 complete control): 100%
- pest or weed control at 125 g/ha ([2]; 125 g ai/ha, scale 0 to 100): 100%
- pest or weed control at 250 g/ha ([2]; 250 g ai/ha, scale 0 to 100): 100%
- pest or weed control at 500 g/ha ([2]; 500 g ai/ha, scale 0 to 100): 100%
- pest or weed control at 62 g/ha [3, 10]: 30%
- pest or weed control at 125 g/ha [3, 10]: 85%
- pest or weed control at 250 g/ha [3, 11]: 85%
- pest or weed control at 500 g/ha [3, 11]: 90%
- pest or weed control at 62 g/ha ([3]; pre-emergence, Preemergence, scale 0 to 100, 0 no effect, 100 complete control, read-out: Plant response rating, Crabgrass): 10%
- pest or weed control at 125 g/ha [3, 12]: 60%
- pest or weed control at 250 g/ha [3, 12]: 90%
- pest or weed control at 500 g/ha [3, 12]: 95%
- pest or weed control at 62 g/ha [4, 13]: 100%
- pest or weed control at 125 g/ha [4, 13]: 100%
- pest or weed control at 250 g/ha [4, 14]: 100%
- pest or weed control at 500 g/ha [4, 14]: 100%
- pest or weed control at 62 g/ha ([4]; pre-emergence, Preemergence, scale 0 to 100, 0 no effect, 100 complete control, read-out: Plant response rating, Kochia): 95%
- pest or weed control at 125 g/ha [4, 15]: 100%
- pest or weed control at 250 g/ha [4, 15]: 100%
- pest or weed control at 500 g/ha [4, 15]: 100%
- pest or weed control at 62 g/ha [5, 16]: 90%
- pest or weed control at 125 g/ha [5, 16]: 100%
- pest or weed control at 250 g/ha [5, 17]: 100%
- pest or weed control at 500 g/ha [5, 17]: 100%
- pest or weed control at 62 g/ha ([5]; pre-emergence, Preemergence, scale 0 to 100, 0 no effect, 100 complete control, read-out: Plant response rating, Pigweed): 90%
- pest or weed control at 125 g/ha [5, 18]: 100%
- pest or weed control at 250 g/ha [5, 18]: 100%
- pest or weed control at 500 g/ha [5, 18]: 100%
- pest or weed control at 62 g/ha [6, 19]: 65%
- pest or weed control at 125 g/ha [6, 19]: 80%
- pest or weed control at 250 g/ha [6, 20]: 90%
- pest or weed control at 500 g/ha [6, 20]: 90%
- pest or weed control at 62 g/ha ([6]; pre-emergence, Preemergence, scale 0 to 100, 0 no effect, 100 complete control, read-out: Plant response rating, Cupgrass, Woolly): 0%
- pest or weed control at 125 g/ha [6, 21]: 60%
- pest or weed control at 250 g/ha [6, 21]: 90%
- pest or weed control at 500 g/ha [6, 21]: 95%
